{"source": "the kinase profiling compilation of Christmann-Franck et al. (2016)", "assay_in_all_cases": "KINOMEscan competition binding", "details_in_all_cases": "compound 1.0 µM", "key": {"PLK4 (human)": {"biological_target": "PLK4 (human) (UniProt O00444)"}, "ADCK3 (human)": {"biological_target": "ADCK3 (human) (UniProt Q8NI60)"}, "HIPK2 (human)": {"biological_target": "HIPK2 (human) (UniProt Q9H2X6)"}, "EPHA4 (human)": {"biological_target": "EPHA4 (human) (UniProt P54764)"}, "EPHA5 (human)": {"biological_target": "EPHA5 (human) (UniProt P54756)"}, "TTK (human)": {"biological_target": "TTK (human) (UniProt P33981)"}, "CHEK2 (human)": {"biological_target": "CHEK2 (human) (UniProt O96017)", "sequence (O96017 whole entry, looked up)": "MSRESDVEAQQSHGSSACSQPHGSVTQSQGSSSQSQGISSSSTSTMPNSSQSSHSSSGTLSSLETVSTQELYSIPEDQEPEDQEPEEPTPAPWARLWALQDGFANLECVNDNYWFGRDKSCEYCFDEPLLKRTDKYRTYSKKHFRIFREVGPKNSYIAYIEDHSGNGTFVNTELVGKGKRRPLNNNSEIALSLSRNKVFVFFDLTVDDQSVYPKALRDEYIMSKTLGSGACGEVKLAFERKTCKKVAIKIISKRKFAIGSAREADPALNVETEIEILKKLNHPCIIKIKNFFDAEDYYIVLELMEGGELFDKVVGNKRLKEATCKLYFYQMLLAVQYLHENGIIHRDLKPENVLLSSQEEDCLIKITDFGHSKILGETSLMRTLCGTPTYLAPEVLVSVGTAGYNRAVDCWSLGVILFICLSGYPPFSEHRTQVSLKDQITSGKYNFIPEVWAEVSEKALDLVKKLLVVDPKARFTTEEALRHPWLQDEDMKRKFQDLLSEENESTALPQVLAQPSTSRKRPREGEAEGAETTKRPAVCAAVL"}, "MAPK14 (human)": {"biological_target": "MAPK14 (human) (UniProt Q16539)", "sequence (Q16539 whole entry, looked up)": "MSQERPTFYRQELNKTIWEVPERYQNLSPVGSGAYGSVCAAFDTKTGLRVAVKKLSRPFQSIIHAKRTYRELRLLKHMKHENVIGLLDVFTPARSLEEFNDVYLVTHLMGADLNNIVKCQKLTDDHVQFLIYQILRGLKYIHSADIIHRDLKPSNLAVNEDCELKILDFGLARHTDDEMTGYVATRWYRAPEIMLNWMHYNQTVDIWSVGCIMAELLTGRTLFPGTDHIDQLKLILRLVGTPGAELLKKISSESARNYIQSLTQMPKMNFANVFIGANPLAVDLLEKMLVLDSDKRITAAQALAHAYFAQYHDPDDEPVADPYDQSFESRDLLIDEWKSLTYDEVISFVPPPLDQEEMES"}, "FLT4 (human)": {"biological_target": "FLT4 (human) (UniProt P35916)", "sequence (P35916 whole entry, looked up)": "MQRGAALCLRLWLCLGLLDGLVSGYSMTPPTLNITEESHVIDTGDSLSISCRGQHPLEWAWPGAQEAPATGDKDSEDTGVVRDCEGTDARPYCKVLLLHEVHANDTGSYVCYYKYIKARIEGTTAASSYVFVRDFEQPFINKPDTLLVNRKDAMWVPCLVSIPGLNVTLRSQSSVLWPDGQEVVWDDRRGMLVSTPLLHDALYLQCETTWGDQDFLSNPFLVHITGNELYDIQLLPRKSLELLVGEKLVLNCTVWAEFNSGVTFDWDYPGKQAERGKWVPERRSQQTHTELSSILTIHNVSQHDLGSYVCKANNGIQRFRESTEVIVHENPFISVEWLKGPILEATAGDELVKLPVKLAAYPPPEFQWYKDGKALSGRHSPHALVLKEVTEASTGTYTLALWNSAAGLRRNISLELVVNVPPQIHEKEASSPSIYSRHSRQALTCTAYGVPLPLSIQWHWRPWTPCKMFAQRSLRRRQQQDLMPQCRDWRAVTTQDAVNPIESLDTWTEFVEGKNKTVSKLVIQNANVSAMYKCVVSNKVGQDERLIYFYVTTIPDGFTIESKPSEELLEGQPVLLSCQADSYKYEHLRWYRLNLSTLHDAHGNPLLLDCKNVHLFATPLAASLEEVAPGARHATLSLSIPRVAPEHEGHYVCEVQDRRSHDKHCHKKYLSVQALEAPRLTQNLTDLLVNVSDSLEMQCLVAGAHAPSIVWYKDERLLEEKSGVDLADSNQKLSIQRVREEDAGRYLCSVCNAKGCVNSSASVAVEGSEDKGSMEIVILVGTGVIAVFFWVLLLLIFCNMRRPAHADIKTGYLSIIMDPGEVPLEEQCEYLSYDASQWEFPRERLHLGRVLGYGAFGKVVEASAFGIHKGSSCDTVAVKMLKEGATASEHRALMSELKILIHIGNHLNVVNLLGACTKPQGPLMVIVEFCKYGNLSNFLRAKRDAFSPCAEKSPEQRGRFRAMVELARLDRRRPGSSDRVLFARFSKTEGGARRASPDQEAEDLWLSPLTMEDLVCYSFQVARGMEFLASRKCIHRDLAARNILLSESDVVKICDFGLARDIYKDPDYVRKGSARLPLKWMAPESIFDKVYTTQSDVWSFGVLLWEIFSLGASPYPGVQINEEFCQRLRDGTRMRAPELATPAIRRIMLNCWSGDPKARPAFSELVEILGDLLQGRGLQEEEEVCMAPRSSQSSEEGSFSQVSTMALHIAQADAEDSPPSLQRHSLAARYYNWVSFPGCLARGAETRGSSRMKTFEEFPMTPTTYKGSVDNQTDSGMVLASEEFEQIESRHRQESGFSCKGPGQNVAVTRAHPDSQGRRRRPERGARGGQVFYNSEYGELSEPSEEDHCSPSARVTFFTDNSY"}, "CSNK1G1 (human)": {"biological_target": "CSNK1G1 (human) (UniProt Q9HCP0)"}, "PRKACA (human)": {"biological_target": "PRKACA (human) (UniProt P17612)"}, "AKT2 (human)": {"biological_target": "AKT2 (human) (UniProt P31751)", "sequence (P31751 whole entry, looked up)": "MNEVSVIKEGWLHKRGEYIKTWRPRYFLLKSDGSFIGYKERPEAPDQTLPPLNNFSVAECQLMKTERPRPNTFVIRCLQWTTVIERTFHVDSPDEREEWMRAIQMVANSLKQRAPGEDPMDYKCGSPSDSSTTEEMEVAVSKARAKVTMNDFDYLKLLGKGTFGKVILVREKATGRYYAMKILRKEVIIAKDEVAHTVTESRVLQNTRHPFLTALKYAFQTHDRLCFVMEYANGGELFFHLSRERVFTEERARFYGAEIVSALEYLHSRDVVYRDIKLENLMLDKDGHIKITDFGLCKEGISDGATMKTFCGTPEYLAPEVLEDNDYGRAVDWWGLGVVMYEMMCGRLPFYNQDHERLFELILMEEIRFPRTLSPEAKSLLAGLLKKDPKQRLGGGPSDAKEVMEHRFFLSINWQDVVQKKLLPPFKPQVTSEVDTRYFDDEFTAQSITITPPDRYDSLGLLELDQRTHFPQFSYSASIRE"}, "HIPK1 (human)": {"biological_target": "HIPK1 (human) (UniProt Q86Z02)"}, "PAK4 (human)": {"biological_target": "PAK4 (human) (UniProt O96013)"}, "[1]": {"tested_on": "PIK3CA (human), P42336 [I800L]"}, "MAP3K12 (human)": {"biological_target": "MAP3K12 (human) (UniProt Q12852)"}, "MAPK9 (human)": {"biological_target": "MAPK9 (human) (UniProt P45984)"}, "[2]": {"tested_on": "EGFR (human), P00533 [T790M/L858R]"}, "DDR2 (human)": {"biological_target": "DDR2 (human) (UniProt Q16832)"}, "TGFBR1 (human)": {"biological_target": "TGFBR1 (human) (UniProt P36897)"}, "[3]": {"tested_on": "FLT3 (human), P36888 [N841I]"}, "CSNK1G3 (human)": {"biological_target": "CSNK1G3 (human) (UniProt Q9Y6M4)"}, "EPHA1 (human)": {"biological_target": "EPHA1 (human) (UniProt P21709)"}, "AKT3 (human)": {"biological_target": "AKT3 (human) (UniProt Q9Y243)"}, "STK17B (human)": {"biological_target": "STK17B (human) (UniProt O94768)", "sequence (O94768 whole entry, looked up)": "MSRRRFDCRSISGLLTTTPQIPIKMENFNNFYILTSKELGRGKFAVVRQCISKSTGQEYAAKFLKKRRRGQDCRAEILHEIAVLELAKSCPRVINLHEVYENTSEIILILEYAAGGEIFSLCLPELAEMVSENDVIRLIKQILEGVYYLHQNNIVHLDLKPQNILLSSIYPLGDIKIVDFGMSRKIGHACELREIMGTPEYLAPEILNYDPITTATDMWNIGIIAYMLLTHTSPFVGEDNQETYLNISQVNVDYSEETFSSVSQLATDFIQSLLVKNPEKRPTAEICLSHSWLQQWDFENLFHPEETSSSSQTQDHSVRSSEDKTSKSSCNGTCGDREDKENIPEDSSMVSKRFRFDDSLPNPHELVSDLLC"}, "PHKG1 (human)": {"biological_target": "PHKG1 (human) (UniProt Q16816)"}, "PRKAA1 (human)": {"biological_target": "PRKAA1 (human) (UniProt Q13131)"}, "ULK3 (human)": {"biological_target": "ULK3 (human) (UniProt Q6PHR2)"}, "[4]": {"tested_on": "PIK3CA (human), P42336 [H1047Y]"}, "PIP4K2C (human)": {"biological_target": "PIP4K2C (human) (UniProt Q8TBX8)", "sequence (Q8TBX8 whole entry, looked up)": "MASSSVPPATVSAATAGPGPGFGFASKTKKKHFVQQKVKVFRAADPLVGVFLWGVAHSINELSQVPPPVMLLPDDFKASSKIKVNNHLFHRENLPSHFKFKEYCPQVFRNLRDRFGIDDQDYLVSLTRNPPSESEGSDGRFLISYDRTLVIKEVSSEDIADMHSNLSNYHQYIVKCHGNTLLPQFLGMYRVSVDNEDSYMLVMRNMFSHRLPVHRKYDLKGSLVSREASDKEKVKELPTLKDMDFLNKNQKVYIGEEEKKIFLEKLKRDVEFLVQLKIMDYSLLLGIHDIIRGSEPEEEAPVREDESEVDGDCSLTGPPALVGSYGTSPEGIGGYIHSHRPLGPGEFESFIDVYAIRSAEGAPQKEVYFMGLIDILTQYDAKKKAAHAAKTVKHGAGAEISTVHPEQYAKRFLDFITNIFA"}, "NUAK1 (human)": {"biological_target": "NUAK1 (human) (UniProt O60285)"}, "PIP5K1A (human)": {"biological_target": "PIP5K1A (human) (UniProt Q99755)"}, "CDKL1 (human)": {"biological_target": "CDKL1 (human) (UniProt Q00532)"}, "CRK2 (P.falciparum)": {"biological_target": "CRK2 (P.falciparum) (UniProt P61075)"}, "BMPR1A (human)": {"biological_target": "BMPR1A (human) (UniProt P36894)"}, "FGR (human)": {"biological_target": "FGR (human) (UniProt P09769)"}, "MYLK2 (human)": {"biological_target": "MYLK2 (human) (UniProt Q9H1R3)"}, "AURKB (human)": {"biological_target": "AURKB (human) (UniProt Q96GD4)"}, "SNRK (human)": {"biological_target": "SNRK (human) (UniProt Q9NRH2)", "sequence (Q9NRH2 whole entry, looked up)": "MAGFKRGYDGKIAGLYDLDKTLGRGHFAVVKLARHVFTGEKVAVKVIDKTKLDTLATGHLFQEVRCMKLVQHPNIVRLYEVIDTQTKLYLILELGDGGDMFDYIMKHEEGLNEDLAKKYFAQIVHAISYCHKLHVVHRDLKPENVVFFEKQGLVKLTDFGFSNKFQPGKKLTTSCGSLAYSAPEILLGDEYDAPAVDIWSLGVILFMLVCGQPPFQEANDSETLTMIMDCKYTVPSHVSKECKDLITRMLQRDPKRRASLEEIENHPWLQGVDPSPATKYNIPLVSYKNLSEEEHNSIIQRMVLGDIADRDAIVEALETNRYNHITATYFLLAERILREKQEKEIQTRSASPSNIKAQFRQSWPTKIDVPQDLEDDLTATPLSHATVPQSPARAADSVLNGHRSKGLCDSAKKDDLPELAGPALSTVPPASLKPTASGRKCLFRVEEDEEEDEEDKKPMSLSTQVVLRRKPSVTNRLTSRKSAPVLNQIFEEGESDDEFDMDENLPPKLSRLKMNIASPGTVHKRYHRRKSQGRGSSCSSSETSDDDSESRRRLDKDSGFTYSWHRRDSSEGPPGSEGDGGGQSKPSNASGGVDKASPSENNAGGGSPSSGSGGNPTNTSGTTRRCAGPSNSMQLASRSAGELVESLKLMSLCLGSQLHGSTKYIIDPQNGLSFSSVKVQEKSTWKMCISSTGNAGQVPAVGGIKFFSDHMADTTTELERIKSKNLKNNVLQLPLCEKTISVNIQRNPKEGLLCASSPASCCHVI"}, "PAK2 (human)": {"biological_target": "PAK2 (human) (UniProt Q13177)"}, "CDK17 (human)": {"biological_target": "CDK17 (human) (UniProt Q00537)", "sequence (Q00537 whole entry, looked up)": "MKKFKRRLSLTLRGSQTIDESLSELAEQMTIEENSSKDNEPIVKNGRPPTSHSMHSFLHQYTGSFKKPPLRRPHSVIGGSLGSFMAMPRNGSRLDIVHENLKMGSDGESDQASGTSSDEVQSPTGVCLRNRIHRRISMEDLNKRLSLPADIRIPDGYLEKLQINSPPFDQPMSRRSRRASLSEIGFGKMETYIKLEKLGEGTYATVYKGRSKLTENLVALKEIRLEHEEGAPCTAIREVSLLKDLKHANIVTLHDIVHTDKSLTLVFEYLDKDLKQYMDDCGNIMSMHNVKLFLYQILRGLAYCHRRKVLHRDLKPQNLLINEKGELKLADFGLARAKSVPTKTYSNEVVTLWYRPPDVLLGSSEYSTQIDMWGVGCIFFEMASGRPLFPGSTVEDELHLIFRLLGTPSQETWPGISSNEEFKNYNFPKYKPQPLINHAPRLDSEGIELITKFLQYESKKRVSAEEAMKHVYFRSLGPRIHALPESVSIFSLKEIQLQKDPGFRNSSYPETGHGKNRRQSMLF"}, "RPS6KA5 KD2 (human)": {"biological_target": "RPS6KA5 KD2 (human) (UniProt O75582)"}, "MAP3K3 (human)": {"biological_target": "MAP3K3 (human) (UniProt Q99759)"}}, "data": [{"smiles": "COCCNCCCn1c(C(=O)CF)c(-c2ccc(C)cc2)c2c(N)ncnc21", "values": [{"measurement": "kinase still bound, per cent of control", "setting": "PLK4 (human)", "result": 100, "unit": "%"}, {"measurement": "kinase still bound, per cent of control", "setting": "ADCK3 (human)", "result": 100, "unit": "%"}, {"measurement": "kinase still bound, per cent of control", "setting": "HIPK2 (human)", "result": 94, "unit": "%"}, {"measurement": "kinase still bound, per cent of control", "setting": "EPHA4 (human)", "result": 96, "unit": "%"}, {"measurement": "kinase still bound, per cent of control", "setting": "EPHA5 (human)", "result": 91, "unit": "%"}, {"measurement": "kinase still bound, per cent of control", "setting": "TTK (human)", "result": 95, "unit": "%"}, {"measurement": "kinase still bound, per cent of control", "setting": "CHEK2 (human)", "result": 100, "unit": "%"}, {"measurement": "kinase still bound, per cent of control", "setting": "MAPK14 (human)", "result": 96, "unit": "%"}, {"measurement": "kinase still bound, per cent of control", "setting": "FLT4 (human)", "result": 98, "unit": "%"}, {"measurement": "kinase still bound, per cent of control", "setting": "CSNK1G1 (human)", "result": 91, "unit": "%"}, {"measurement": "kinase still bound, per cent of control", "setting": "PRKACA (human)", "result": 100, "unit": "%"}, {"measurement": "kinase still bound, per cent of control", "setting": "AKT2 (human)", "result": 95, "unit": "%"}, {"measurement": "kinase still bound, per cent of control", "setting": "HIPK1 (human)", "result": 96, "unit": "%"}, {"measurement": "kinase still bound, per cent of control", "setting": "PAK4 (human)", "result": 92, "unit": "%"}, {"measurement": "kinase still bound, per cent of control", "setting": "[1]", "result": 100, "unit": "%"}, {"measurement": "kinase still bound, per cent of control", "setting": "MAP3K12 (human)", "result": 94, "unit": "%"}, {"measurement": "kinase still bound, per cent of control", "setting": "MAPK9 (human)", "result": 94, "unit": "%"}, {"measurement": "kinase still bound, per cent of control", "setting": "[2]", "result": 100, "unit": "%"}, {"measurement": "kinase still bound, per cent of control", "setting": "DDR2 (human)", "result": 99, "unit": "%"}, {"measurement": "kinase still bound, per cent of control", "setting": "TGFBR1 (human)", "result": 89, "unit": "%"}, {"measurement": "kinase still bound, per cent of control", "setting": "[3]", "result": 65, "unit": "%"}, {"measurement": "kinase still bound, per cent of control", "setting": "CSNK1G3 (human)", "result": 98, "unit": "%"}, {"measurement": "kinase still bound, per cent of control", "setting": "EPHA1 (human)", "result": 94, "unit": "%"}, {"measurement": "kinase still bound, per cent of control", "setting": "AKT3 (human)", "result": 86, "unit": "%"}, {"measurement": "kinase still bound, per cent of control", "setting": "STK17B (human)", "result": 96, "unit": "%"}, {"measurement": "kinase still bound, per cent of control", "setting": "PHKG1 (human)", "result": 100, "unit": "%"}, {"measurement": "kinase still bound, per cent of control", "setting": "PRKAA1 (human)", "result": 100, "unit": "%"}, {"measurement": "kinase still bound, per cent of control", "setting": "ULK3 (human)", "result": 99, "unit": "%"}, {"measurement": "kinase still bound, per cent of control", "setting": "[4]", "result": 100, "unit": "%"}, {"measurement": "kinase still bound, per cent of control", "setting": "PIP4K2C (human)", "result": 100, "unit": "%"}, {"measurement": "kinase still bound, per cent of control", "setting": "NUAK1 (human)", "result": 98, "unit": "%"}, {"measurement": "kinase still bound, per cent of control", "setting": "PIP5K1A (human)", "result": 100, "unit": "%"}, {"measurement": "kinase still bound, per cent of control", "setting": "CDKL1 (human)", "result": 100, "unit": "%"}, {"measurement": "kinase still bound, per cent of control", "setting": "CRK2 (P.falciparum)", "result": 100, "unit": "%"}, {"measurement": "kinase still bound, per cent of control", "setting": "BMPR1A (human)", "result": 100, "unit": "%"}, {"measurement": "kinase still bound, per cent of control", "setting": "FGR (human)", "result": 93, "unit": "%"}, {"measurement": "kinase still bound, per cent of control", "setting": "MYLK2 (human)", "result": 95, "unit": "%"}, {"measurement": "kinase still bound, per cent of control", "setting": "AURKB (human)", "result": 62, "unit": "%"}, {"measurement": "kinase still bound, per cent of control", "setting": "SNRK (human)", "result": 99, "unit": "%"}, {"measurement": "kinase still bound, per cent of control", "setting": "PAK2 (human)", "result": 85, "unit": "%"}, {"measurement": "kinase still bound, per cent of control", "setting": "CDK17 (human)", "result": 100, "unit": "%"}, {"measurement": "kinase still bound, per cent of control", "setting": "RPS6KA5 KD2 (human)", "result": 98, "unit": "%"}, {"measurement": "kinase still bound, per cent of control", "setting": "MAP3K3 (human)", "result": 96, "unit": "%"}]}]}
